# According to patent US11629171B2, “Beta-hairpin peptidomimetics” (POLYPHOR AG, priority 2017, dated 2023):
# Where a SMILES comes first, the peptide text is derived from it. Bridges are numbered along the chain shown (N, C = ends). Roman numbers before positions name the chains, in order. [ ]: non-standard residue; d: D form. The star is where a group is joined. Thr(ol) = C[C@@H](O)[C@H](N)CO; Tle = CC(C)(C)[C@H](N)C(=O)O; Isovaleryl = CC(C)CC(=O)*; dDab = NCC[C@@H](N)C(=O)O; Dab = NCC[C@H](N)C(=O)O; Dap = NC[C@H](N)C(=O)O; Mpa = O=C(O)CCS
# Tests used:
# Assay type in all cases: cell-based
# [1] = test system: Acinetobacter baumannii 872842; settings: 872842
# Outline: (§1)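 Standard CLSI microdilution testing: bacterial suspensions standardized against 0.5 McFarland to about 10^6 CFU/mL in MH-II broth meet serially halved peptide concentrations in broth containing 0.002% polysorbate 80; incubation lasts 18-20 h at 35° C before the MIC is scored.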
# [2] = test system: Acinetobacter baumannii DSM 30008; settings: DSM 30008
# Outline: as §1
# [3] = test system: Enterobacter cloacae 848840; settings: 848840
# Outline: as §1
# Escherichia coli 926415 = settings: 926415
# Outline: as §1
# [4] = test system: Escherichia coli ATCC 25922; settings: ATCC 25922
# Outline: as §1
# [5] = test system: Klebsiella pneumoniae 968733; settings: 968733
# Outline: as §1
# [6] = test system: Klebsiella pneumoniae SSI #3010; settings: SSI #3010
# Outline: as §1
# [7] = test system: Pseudomonas aeruginosa ATCC 27853; settings: ATCC 27853
# Outline: as §1
# [8] = test system: human red blood cells (hRBC); assay: Hemolysis; settings: red cells of human, 1 h, 200
# Outline: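 Washed fresh hRBC (20% v/v) were incubated with peptides at 200 μg/mL for 1 h at 37° C with shaking at 300 rpm. Supernatant OD540 was read after centrifugation and dilution, blank-corrected, and expressed as percent of the 2% Triton X-100 (100% lysis) control; PBS with 10% water gave 0%.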
MIC [1],MIC [2],MIC [3],MIC (Escherichia coli 926415),MIC [4],MIC [5],MIC [6],MIC [7],Compound,Hemolysis at 200 μg/mL [8]
0.0625 µg/mL,0.0625 µg/mL,0.25 µg/mL,0.125 µg/mL,0.0625 µg/mL,0.125 µg/mL,0.0625 µg/mL,0.25 µg/mL,CC(=O)N[C@@H](CCN)C(=O)N[C@H](C(=O)N[C@H]1CSSC[C@@H](C(=O)N[C@@H](CO)C(=O)N[C@@H](CCC(=O)O)C(N)=O)NC(=O)[C@H](C(C)(C)C)NC(=O)[C@H](CO)NC(=O)[C@H](Cc2c[nH]c3ccccc23)NC(=O)[C@H](CCN)NC(=O)[C@@H](CCN)NC(=O)[C@H](CCC(=O)N[C@@H](CCN)C(=O)N[C@H](C(=O)N[C@@H](CN)C(=O)N[C@H]2CCNC(=O)[C@H]([C@@H](C)O)NC(=O)[C@H](CCN)NC(=O)[C@H](CCN)NC(=O)[C@H](CC(C)C)NC(=O)[C@@H](CC(C)C)NC(=O)[C@H](CCN)NC2=O)[C@@H](C)O)NC(=O)[C@H](CO)NC(=O)[C@H](Cc2ccc(O)cc2)NC1=O)C(C)C [Ex. 243] (I: Ac-[Dab]VCYSE[dDab][Dab]WS[Tle]CSE-NH2 / II: [Dab]T[Dap][Dab][Dab][dL]L[Dab][Dab]T; disulfide I:3-I:12; amide I:6-II:N; lactam II:4-II:C),<1%
0.0625 µg/mL,0.03125 µg/mL,0.125 µg/mL,0.125 µg/mL,0.0625 µg/mL,0.25 µg/mL,0.125 µg/mL,0.25 µg/mL,CC(C)C[C@@H]1NC(=O)[C@@H](CC(C)C)NC(=O)[C@H](CCN)NC(=O)[C@@H](NC(=O)[C@H](CN)NC(=O)[C@@H](NC(=O)[C@H](CCN)NC(=O)CC[C@@H]2NC(=O)[C@H](CN)NC(=O)[C@H](Cc3ccc(O)cc3)NC(=O)[C@H]([C@@H](C)O)NC(=O)[C@H](C(C)C)NC(=O)CCSSC[C@@H](C(N)=O)NC(=O)[C@H](CO)NC(=O)[C@H](C)NC(=O)[C@H](C(C)(C)C)NC(=O)[C@H](CO)NC(=O)[C@H](Cc3c[nH]c4ccccc34)NC(=O)[C@H](CO)NC(=O)[C@@H](CCN)NC2=O)[C@@H](C)O)CCNC(=O)[C@H]([C@@H](C)O)NC(=O)[C@H](CCN)NC(=O)[C@H](CCN)NC1=O [Ex. 245] (I: [Mpa]VTY[Dap]E[dDab]SWS[Tle]ASC-NH2 / II: [Dab]T[Dap][Dab][Dab][dL]L[Dab][Dab]T; disulfide I:1-I:14; amide I:6-II:N; lactam II:4-II:C),1%
0.125 µg/mL,0.03125 µg/mL,0.125 µg/mL,0.125 µg/mL,0.03125 µg/mL,0.5 µg/mL,0.125 µg/mL,0.125 µg/mL,CC(=O)N[C@H](C(=O)N[C@@H](CN)C(=O)N[C@@H](Cc1ccc(O)cc1)C(=O)N[C@H]1CSSC[C@@H](C(=O)N[C@H](C(=O)N[C@@H](CC(=O)O)C(=O)N[C@H](C(N)=O)[C@@H](C)O)C(C)(C)C)NC(=O)[C@H](Cc2c[nH]c3ccccc23)NC(=O)[C@H](CO)NC(=O)[C@@H](CCN)NC(=O)[C@H](CCC(=O)N[C@@H](CCN)C(=O)N[C@H](C(=O)N[C@@H](CN)C(=O)N[C@H]2CCNC(=O)[C@H]([C@@H](C)O)NC(=O)[C@H](CCN)NC(=O)[C@H](CCN)NC(=O)[C@H](CC(C)C)NC(=O)[C@@H](CC(C)C)NC(=O)[C@H](CCN)NC2=O)[C@@H](C)O)NC1=O)C(C)C [Ex. 227] (I: Ac-V[Dap]YCE[dDab]SWC[Tle]DT-NH2 / II: [Dab]T[Dap][Dab][Dab][dL]L[Dab][Dab]T; disulfide I:4-I:9; amide I:5-II:N; lactam II:4-II:C),<1%
0.0625 µg/mL,0.03125 µg/mL,0.0625 µg/mL,0.125 µg/mL,0.03125 µg/mL,0.25 µg/mL,0.0625 µg/mL,0.125 µg/mL,"CC(=O)N[C@H](C(=O)N[C@H]1CCNC(=O)C[C@@H](C(=O)N[C@@H](CO)C(N)=O)NC(=O)[C@H](C(C)(C)C)NC(=O)[C@H](CO)NC(=O)[C@H](Cc2c[nH]c3ccccc23)NC(=O)[C@H](CO)NC(=O)[C@@H](CCN)NC(=O)[C@H](CCC(=O)N[C@@H](CCN)C(=O)N[C@H](C(=O)N[C@@H](CN)C(=O)N[C@H]2CCNC(=O)[C@H]([C@@H](C)O)NC(=O)[C@H](CCN)NC(=O)[C@H](CCN)NC(=O)[C@H](CC(C)C)NC(=O)[C@@H](CC(C)C)NC(=O)[C@H](CCN)NC2=O)[C@@H](C)O)NC(=O)[C@H](CN)NC(=O)[C@H](Cc2ccc(O)cc2)NC1=O)C(C)C [Ex. 148] (I: Ac-V[Dab]Y[Dap]E[dDab]SWS[Tle]DS-NH2 / II: [Dab]T[Dap][Dab][Dab][dL]L[Dab][Dab]T; lactam I:2-I:11, II:4-II:C; amide I:5-II:N)",<1%
0.125 µg/mL,0.0625 µg/mL,0.25 µg/mL,0.0625 µg/mL,0.125 µg/mL,0.25 µg/mL,0.125 µg/mL,0.25 µg/mL,CC(=O)N[C@@H](CCN)C(=O)N[C@@H](CC(C)C)C(=O)N[C@H](C(=O)N[C@@H](Cc1ccc(O)cc1)C(=O)N[C@H]1CSSC[C@@H](C(=O)N[C@H](C(=O)N[C@@H](C)C(=O)N[C@H](C(N)=O)C(C)C)C(C)(C)C)NC(=O)[C@H](Cc2c[nH]c3ccccc23)NC(=O)[C@H](CCN)NC(=O)[C@@H](CCN)NC(=O)[C@H](CCC(=O)N[C@@H](CCN)C(=O)N[C@H](C(=O)N[C@@H](CN)C(=O)N[C@H]2CCNC(=O)[C@H]([C@@H](C)O)NC(=O)[C@H](CCN)NC(=O)[C@H](CCN)NC(=O)[C@H](CC(C)C)NC(=O)[C@@H](CC(C)C)NC(=O)[C@H](CCN)NC2=O)[C@@H](C)O)NC1=O)[C@@H](C)O [Ex. 239] (I: Ac-[Dab]LTYCE[dDab][Dab]WC[Tle]AV-NH2 / II: [Dab]T[Dap][Dab][Dab][dL]L[Dab][Dab]T; disulfide I:5-I:10; amide I:6-II:N; lactam II:4-II:C),1%
0.0625 µg/mL,0.03125 µg/mL,0.0625 µg/mL,0.125 µg/mL,0.03125 µg/mL,0.0625 µg/mL,0.0625 µg/mL,0.25 µg/mL,CC(=O)N[C@H]1CSSC[C@@H](C(N)=O)NC(=O)[C@H](CO)NC(=O)[C@H](C)NC(=O)[C@H](C(C)(C)C)NC(=O)[C@H](CO)NC(=O)[C@H](Cc2c[nH]c3ccccc23)NC(=O)[C@H](CO)NC(=O)[C@@H](CCN)NC(=O)[C@H](CCC(=O)N[C@@H](CCN)C(=O)N[C@H](C(=O)N[C@@H](CN)C(=O)N[C@H]2CCNC(=O)[C@H]([C@@H](C)O)NC(=O)[C@H](CCN)NC(=O)[C@H](CCN)NC(=O)[C@H](CC(C)C)NC(=O)[C@@H](CC(C)C)NC(=O)[C@H](CCN)NC2=O)[C@@H](C)O)NC(=O)[C@H](CN)NC(=O)[C@H](Cc2ccc(O)cc2)NC(=O)[C@H]([C@@H](C)O)NC(=O)[C@H](C(C)C)NC1=O [Ex. 244] (I: Ac-CVTY[Dap]E[dDab]SWS[Tle]ASC-NH2 / II: [Dab]T[Dap][Dab][Dab][dL]L[Dab][Dab]T; disulfide I:1-I:14; amide I:6-II:N; lactam II:4-II:C),1%
0.125 µg/mL,0.0625 µg/mL,0.25 µg/mL,0.25 µg/mL,0.125 µg/mL,0.5 µg/mL,0.125 µg/mL,0.125 µg/mL,CC(C)CC(=O)N[C@H]1CSSC[C@@H](C(=O)N[C@H](CO)[C@@H](C)O)NC(=O)[C@H](C(C)(C)C)NC(=O)[C@H](CO)NC(=O)[C@H](Cc2c[nH]c3ccccc23)NC(=O)[C@H]([C@@H](C)O)NC(=O)[C@@H](CCN)NC(=O)[C@H](CCC(=O)N[C@@H](CCN)C(=O)N[C@H](C(=O)N[C@@H](CCN)C(=O)N[C@H]2CCNC(=O)[C@H]([C@@H](C)O)NC(=O)[C@H](CCN)NC(=O)[C@H](CCN)NC(=O)[C@H](CC(C)C)NC(=O)[C@@H](CC(C)C)NC(=O)[C@H](CCN)NC2=O)[C@@H](C)O)NC(=O)[C@H](CN)NC(=O)[C@H](Cc2ccc(O)cc2)NC1=O [Example 4] (I: Isovaleryl-CY[Dap]E[dDab]TWS[Tle]C[Thr(ol)] / II: [Dab]T[Dab][Dab][Dab][dL]L[Dab][Dab]T; disulfide I:1-I:10; amide I:4-II:N; lactam II:4-II:C),1%
